“Also recorded” adds a separate entry of the source. Read-outs that look alike come from different tables or passages of the source.
Legend:
Format in all cases: binding
14-3-3γ/SLP76 [1] = biological target: T1, 14-3-3γ/SLP76 (Homo sapiens, UniProt P61981+Q13094); assay: HTRF dose-response assay on 14-3-3γ/SLP76; conditions: 14-3-3γ-Tb 1 nM, SLP76-AF647 600 nM, 5% DMSO, EC50 estimated from fit
Description: 384-Well logistic plates were prefilled with 2 μL of compounds at 2 mM, 100% DMSO, except for columns 1, 2, 23 and 24. Columns 1, 2 were filled with 2 μL of DMSO while columns 23, 24 were filled with 2 μL of the 14-3-3 inhibitor R18 at 20 μM using a Multidrop Dispenser (ThermoScientific). Next, 40 μL of protein mixture containing Tb-labelled 14-3-3γ at 1 nM and AF647 labelled SLP76 at 600 nM in assay buffer (50 mM Tris pH 7.5, 150 mM NaCl, 5 mM MgCl2, 0.05% v/v Tween-20) were added using a Multidrop Dispenser (ThermoScientific). […] To perform the assay, 30 μL volumes were then transferred using a Biomek FX^P Automated Workstation (Beckman Coulter) into Corning 384-well 3574 assay plates. The plates were incubated at room temperature with gentle shaking for 4 h. Finally, the data were collected on a PHERAstar FSX plate reader (BMG Labtech) with an λex 337 nm, λem 665 nm and 620 nm HTRF filter setting. The data were exported in IDBS ActivityBase (IDBS) where they were normalised setting the R18 negative control as 100% inhibition and the DMSO control as 0%. Negative percentage values were therefore associated with a stabilisation of the 14-3-3γ/SLP76 interaction. The threshold of −20% inhibition (or 20% stabilisation) was chosen to select the hits to follow up. The selected hits were retested on 14-3-3γ/SLP76 and were also tested against an unrelated protein pair (IL-17/receptor) in a similar assay setup. […] All the assays were performed as described above.
(§1) 384 logistic plates were prefilled with 40 μL of compounds at 10 mM, 100% DMSO in column 3. Columns 1, 2 and 4 to 22 were filled with 20 μL of 100% DMSO with a Multidrop Dispenser (ThermoScientific). 2-Fold dilutions of the compounds were carried over from column 3 to 22, with a CyBio FeliX liquid handler (analytikjena). 2 μL of R18 peptide at 20 μM was added to columns 23 and 24 of the Corning 384-well 3574 final assay plates with a Multidrop Dispenser (ThermoScientific). 40 μL of protein mixture, containing Tb labelled 14-3-3γ at 1 nM and AF647 labelled SLP76 at 600 nM in assay buffer (50 mM Tris pH 7.5, 150 mM NaCl, 5 mM MgCl2, 0.05% v/v Tween-20) were added with a Multidrop Dispenser (ThermoScientific) into the Corning 384-well 3574 final assay plates. 2 μL of compounds along with the DMSO control were then transferred with a CyBio FeliX liquid handler (analytikjena) from the 384 logistic plates to the final Corning 384-well 3574 assay plates. […] The dose–response on the first 64 compounds was performed in singlet from a 500 μM top concentration. The repetition on the best 16 compounds was performed in duplicates from a 250 μM top concentration. A dose–response assay on an unrelated 14-3-3ζ/p27 HTRF protein pair was performed as described above. Incubation, data acquisition and normalisation were performed as described above. For EC50 estimation, the data were fitted with a “log(agonist) vs. response (three parameters)” model on GraphPad Prism version 8.1.1 for Windows, GraphPad Software, La Jolla California USA, www.graphpad.com. In the case of duplicates, each data point is the average of a duplicate measurement, standard deviation is reported as error bars.

14-3-3ζ/p27 = 14-3-3ζ/p27 (Homo sapiens, UniProt P46527+P63104); assay: HTRF dose-response assay on 14-3-3ζ/p27; conditions: for Selectivity between 14-3-3γ/SLP76 and 14-3-3ζ/p27 (in words): comparison of HTRF dose-responses
Chain of 14-3-3ζ/p27 (P63104 whole entry): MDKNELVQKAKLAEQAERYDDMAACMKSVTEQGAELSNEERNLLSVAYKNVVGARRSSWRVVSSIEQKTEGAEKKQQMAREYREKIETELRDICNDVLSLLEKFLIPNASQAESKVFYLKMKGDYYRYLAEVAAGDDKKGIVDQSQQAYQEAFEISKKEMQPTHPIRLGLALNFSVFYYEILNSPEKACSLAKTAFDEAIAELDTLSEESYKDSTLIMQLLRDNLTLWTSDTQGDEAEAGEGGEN
Chain of 14-3-3ζ/p27 (P46527 whole entry): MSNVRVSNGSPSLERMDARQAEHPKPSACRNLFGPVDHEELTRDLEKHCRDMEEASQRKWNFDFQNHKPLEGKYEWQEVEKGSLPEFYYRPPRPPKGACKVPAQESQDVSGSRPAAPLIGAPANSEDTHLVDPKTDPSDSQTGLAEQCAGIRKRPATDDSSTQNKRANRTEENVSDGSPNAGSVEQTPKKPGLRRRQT
Description: as §1

14-3-3γ/SLP76 [2] = biological target: T1, 14-3-3γ/SLP76; assay: Orthogonal SPR assay, compound flowed with SLP76 over immobilised 14-3-3γ; set-up: key to SPR RU (%) mass increase 14-3-3γ/SLP76: Ns: no stabilisation observed in SPR; conditions: for Stabilisation in SPR (in words): off-rate / mass on chip versus runs without compound; for SPR RU (%) mass increase 14-3-3γ/SLP76: percentage of SLP76 remained on the chip after the dissociation phase (+240 s)
Description: Of the 16 hit compounds 13 were tested in an orthogonal SPR assay in which each compound was flowed with SLP76 over 14-3-3γ immobilised on the chip. Runs at different concentrations of compound were compared to the runs in absence of compound. […] The effect of the compounds on 14-3-3γ/SLP76 was measured by calculating the percentage of SLP76 remained on the chip after the dissociation phase and immediately before: RU (%) = RU 5 s before dissociation/RU +240 s after dissociation. Dose–response curves were extrapolated from those sensorgrams plotting the RU (%) mass increase over the increase in compound concentrations.
SPR experiments were performed on a Biacore T200 (Cytiva). The Sensor Chip NTA was validated as previously reported by Soini et al.[63] A DMSO tolerance at 2% and 5% was performed in the same way (Fig. S1 ^†).
For compounds testing, the compounds were preincubated with SLP76, in final DMSO concentration of 5%. The compounds were tested at a single concentration of 100 μM and at multiple concentrations following a 3-fold dilution from a top concentration of 100 μM with SLP76 at the saturation concentration of 250 nM. A second set of experiments were performed at multiple concentrations of compound following a 3-fold dilution from a top concentration of 200 μM with SLP76 around the KD concentration of 40 nM. The SLP76/compound mixtures were flowed over the immobilised 14-3-3γ at 30 μL min^−1 for 180 s before allowing dissociation for 5 minutes. After every cycle, the chip was washed with EDTA and Ni^2+ and 14-3-3γ reinjected for the next cycle. The compound effects were measured by calculating the percentage of SLP76 remained on the chip after the dissociation phase and right before: RU (%) = RU 5 s before dissociation/RU +240 s after dissociation. RU response points relative to +240 s after dissociation were also plotted and an apparent EC50 was estimated. The data were fitted with a “One site – specific” model on GraphPad Prism version 8.1.1 for Windows, GraphPad Software, La Jolla California USA, www.graphpad.com.

[3] = stabilisation, read-out: HTRF EC50 14-3-3γ/SLP76
[4] = stabilisation, same FRET pair, EC50 estimated from fit, read-out: HTRF EC50 14-3-3ζ/p27

T1 sequence (Q13094 356-533): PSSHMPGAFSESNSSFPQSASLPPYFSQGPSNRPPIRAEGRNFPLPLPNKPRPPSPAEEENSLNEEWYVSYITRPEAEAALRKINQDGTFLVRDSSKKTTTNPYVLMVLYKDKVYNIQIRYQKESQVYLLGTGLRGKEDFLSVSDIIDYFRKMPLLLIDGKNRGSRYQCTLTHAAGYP
T1 sequence (P61981 whole entry): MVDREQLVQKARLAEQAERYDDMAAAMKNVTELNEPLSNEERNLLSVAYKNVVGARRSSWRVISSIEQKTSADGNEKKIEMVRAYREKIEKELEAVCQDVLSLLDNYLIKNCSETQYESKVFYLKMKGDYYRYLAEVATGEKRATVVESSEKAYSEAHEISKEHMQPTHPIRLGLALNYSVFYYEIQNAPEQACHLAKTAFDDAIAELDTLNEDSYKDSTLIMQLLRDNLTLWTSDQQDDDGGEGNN

Structure (SMILES) | EC50 (14-3-3γ/SLP76 [1]; [3]) | Stabilisation of 14-3-3ζ/p27 in HTRF (in words) (14-3-3ζ/p27) | Selectivity between 14-3-3γ/SLP76 and 14-3-3ζ/p27 (in words) (14-3-3ζ/p27) | EC50 (14-3-3ζ/p27; [4]) | Stabilisation in SPR (in words) (14-3-3γ/SLP76 [2]) | SPR RU (%) mass increase 14-3-3γ/SLP76 (14-3-3γ/SLP76 [2]) | EC50 (14-3-3γ/SLP76 [1]; HTRF EC50 14-3-3γ/SLP76, stabilisation) | EC50 (14-3-3ζ/p27)
O=C1OC[C@@H]2CCN(Cc3ccccc3)Cc3ccccc3N12 [Compound 1, (6S)-9-benzyl-4-oxa-2,9-diazatricyclo[9.4.0.02,6]pentadeca-1(11),12,14-trien-3-one] | 19.1 ± 7.7 µM | no observed stabilisation | selective for the 14-3-3γ/SLP76 interaction | > 250 µM | orthogonally confirmed and equipotent by SPR | 66.4% |  | 
CC(C)N1CC[C@H]2COC(=O)N2c2cc(F)ccc2C1 [Compound 2, (6S)-14-fluoro-9-propan-2-yl-4-oxa-2,9-diazatricyclo[9.4.0.02,6]pentadeca-1(15),11,13-trien-3-one] | 18.6 ± 5.5 µM | no observed stabilisation | selective for the 14-3-3γ/SLP76 interaction | > 250 µM | orthogonally confirmed and equipotent by SPR | 67.6% |  | 
COc1ccc(C(=O)N2C[C@@H]3CN(CCO3)C(=O)[C@@H]3C[C@@H](CN3Cc3ccc4c(c3)OCO4)NC(=O)C[C@@H]3O[C@H](C2)[C@@H](O)[C@H]3O)cc1 [Compound 4, (3S,6S,10S,11R,12S,13R,17R)-4-(1,3-benzodioxol-5-ylmethyl)-11,12-dihydroxy-15-(4-methoxybenzoyl)-18,22-dioxa-1,4,7,15-tetrazatetracyclo[15.3.1.13,6.110,13]tricosane-2,8-dione] | 17.4 ± 4.9 µM |  | selective for the 14-3-3γ/SLP76 system | > 250 µM | orthogonally confirmed by SPR; also recorded: orthogonally confirmed in the SPR assay | 57.1% |  | 
CC1=CCC2COC(C[N+]3(C)CCCCC3)C1C2 (stereo not drawn) [Compound 5, 1-methyl-1-[(8-methyl-3-oxabicyclo[3.3.1]non-7-en-2-yl)methyl]piperidin-1-ium] | 71.1 ± 23.9 µM |  | selective over 14-3-3ζ/p27 | > 250 µM | no observable stabilisation effect | Ns ^d |  | 
COc1ccc2c(c1)[C@]1(CC[N+](C)(C)CC(=O)OC(C)(C)C)CCCC[C@@H]1C=C2 [Compound 6, 2-[(4aS,10aR)-6-methoxy-2,3,4,10a-tetrahydro-1H-phenanthren-4a-yl]ethyl-dimethyl-[2-[(2-methylpropan-2-yl)oxy]-2-oxoethyl]azanium] |  |  | selective over 14-3-3ζ/p27 |  | no observable stabilisation effect | Ns ^d | 33.5 ± 10.7 µM | > 250 µM
Fc1ccc(OCc2nn3c(Cn4cnc5ccccc54)nnc3s2)cc1 [Compound 8, 3-(benzimidazol-1-ylmethyl)-6-[(4-fluorophenoxy)methyl]-[1,2,4]triazolo[3,4-b][1,3,4]thiadiazole] | 69.1 ± 22.6 µM |  | weak and equipotent stabiliser of both the 14-3-3γ/SLP76 and 14-3-3ζ/p27 systems | 53.9 ± 17.1 µM | orthogonally confirmed by SPR | 61.2% |  | 
COc1ccccc1-c1nnc2scnn12 [Compound 9, 3-(2-methoxyphenyl)-[1,2,4]triazolo[3,4-b][1,3,4]thiadiazole] | 24.5 ± 5.8 µM |  | modest level of selectivity in stabilising 14-3-3ζ/p27 over 14-3-3γ/SLP76 | 5.8 ± 2.2 µM | orthogonally confirmed by SPR | 58.7% |  | 
CC1=Nn2c(nnc2-c2ccoc2C)SC1 [Compound 10, 6-methyl-3-(2-methylfuran-3-yl)-7H-[1,2,4]triazolo[3,4-b][1,3,4]thiadiazine] | 70.1 ± 8.7 µM |  | modest level of selectivity in stabilising 14-3-3ζ/p27 over 14-3-3γ/SLP76 | 16.5 ± 10.6 µM | no observable stabilisation | Ns ^d |  | 
Cc1ccc(-c2ccc3c(n2)C(=N)NC3CCc2ccc(O)cc2)o1 (stereo not drawn) [Compound 11, 4-[2-[7-imino-2-(5-methylfuran-2-yl)-5,6-dihydropyrrolo[3,4-b]pyridin-5-yl]ethyl]phenol] | 29.7 ± 21.8 µM |  |  | 129 ± 70.5 µM |  |  |  | 
CC(=O)CSc1nc2c(c(=O)[nH]c(=O)n2C)n1Cc1cccc(C)c1 [Compound 15, 3-methyl-7-[(3-methylphenyl)methyl]-8-(2-oxopropylsulfanyl)purine-2,6-dione] | 17.1 ± 5.2 µM |  |  | 11.6 ± 6.1 µM |  |  |  | 
O=C(c1ccc(Cl)cc1)n1c(Cn2nnc(-c3cccc4ccccc34)n2)n[nH]c1=S [Compound 16, (4-chlorophenyl)-[3-[(5-naphthalen-1-yltetrazol-2-yl)methyl]-5-sulfanylidene-1H-1,2,4-triazol-4-yl]methanone] | 1.2 ± 0.7 µM |  |  | 80.6 ± 53.4 µM |  |  |  | 

— publication PMC8459327, “Identification of molecular glues of the SLP76/14-3-3 protein–protein interaction” (RSC Medicinal Chemistry, 2021)
